Measurements as given in publication PMC6093650, “Antidepressive and anxiolytic effects of ostruthin, a TREK-1 channel activator” (PLoS ONE, 2018).

Tests used:
Assay type in all cases: cell-based
[1] = target: T1, HERG-3 (Homo sapiens, UniProt Q9NS40); assay: whole-cell patch-clamp of HERG-3 currents in 293T cells; conditions: 100 μM (data not shown)
T1 construct: expressed in transfected cells; host or cells: 293T (transient, calcium-phosphate transfection)
T1 sequence (Q9NS40 1-1196): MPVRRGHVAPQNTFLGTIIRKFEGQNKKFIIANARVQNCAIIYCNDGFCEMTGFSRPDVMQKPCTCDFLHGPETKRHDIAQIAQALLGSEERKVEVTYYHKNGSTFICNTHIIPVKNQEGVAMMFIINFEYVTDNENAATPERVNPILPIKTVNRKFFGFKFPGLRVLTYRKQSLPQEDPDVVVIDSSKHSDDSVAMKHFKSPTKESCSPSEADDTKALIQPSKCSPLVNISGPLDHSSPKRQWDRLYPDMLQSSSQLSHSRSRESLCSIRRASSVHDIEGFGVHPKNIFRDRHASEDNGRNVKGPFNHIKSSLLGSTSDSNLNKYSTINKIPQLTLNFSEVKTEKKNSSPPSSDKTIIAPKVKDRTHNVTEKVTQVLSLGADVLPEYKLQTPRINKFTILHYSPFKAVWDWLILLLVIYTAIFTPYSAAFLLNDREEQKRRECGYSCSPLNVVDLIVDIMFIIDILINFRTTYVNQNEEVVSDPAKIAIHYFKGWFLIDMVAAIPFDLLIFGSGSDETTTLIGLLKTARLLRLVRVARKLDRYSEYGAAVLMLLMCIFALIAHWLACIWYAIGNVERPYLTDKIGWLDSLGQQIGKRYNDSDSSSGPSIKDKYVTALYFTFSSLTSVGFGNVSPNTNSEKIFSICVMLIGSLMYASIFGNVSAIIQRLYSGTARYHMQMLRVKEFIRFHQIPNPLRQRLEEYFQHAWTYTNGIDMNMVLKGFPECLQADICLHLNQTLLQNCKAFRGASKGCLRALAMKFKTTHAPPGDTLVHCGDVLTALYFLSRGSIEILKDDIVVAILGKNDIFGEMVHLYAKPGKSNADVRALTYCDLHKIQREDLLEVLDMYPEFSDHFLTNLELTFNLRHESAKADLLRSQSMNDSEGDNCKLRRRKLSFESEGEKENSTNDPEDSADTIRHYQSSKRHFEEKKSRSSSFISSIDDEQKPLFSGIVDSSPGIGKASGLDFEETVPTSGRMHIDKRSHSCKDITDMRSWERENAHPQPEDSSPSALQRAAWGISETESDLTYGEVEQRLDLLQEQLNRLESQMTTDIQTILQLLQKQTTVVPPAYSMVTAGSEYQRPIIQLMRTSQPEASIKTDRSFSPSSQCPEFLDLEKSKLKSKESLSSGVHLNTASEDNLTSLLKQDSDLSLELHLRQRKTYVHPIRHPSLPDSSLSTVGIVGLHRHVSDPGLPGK
Text: (§1) For recordings of K^+ channel currents, we prepared stable cell lines for TREK-1, TWIK-related acid-sensitive K^+ channel (TASK-1), strongly inwardly rectifying K^+ channel (Kir2.1), and human ether-a-go-go-related gene (HERG-1) channels and transiently expressed other channels in 293T cells using a calcium-phosphate transfection method. For the establishment of the stable lines, we used lentiviral vectors, and the preparation methods for the lentiviral vectors were described in our previous report. TR-1 cells, which stably expressed TREK-1 channel and were grown on a small cover glass (3 × 18 mm), were placed in a recording chamber with an internal volume of 200 μl. Whole-cell currents were recorded in Tyrode solution using an Axopatch 200B amplifier (Axon Instruments, Foster City, CA) at 25°C. Tyrode solution contained (in mM): NaCl 140, KCl 5.4, NaH2PO4 0.33, CaCl2 2, MgCl2 1, HEPES 5, and glucose 5.5 (pH 7.4 adjusted with NaOH). […] Perfusion (100 μl/min) was continued to maintain the water level throughout recordings. pH and osmotic pressure of solutions were measured with a pH meter (Horiba, Kyoto, Japan) and a freezing point osmometer (Knauer, Berlin, Germany), respectively. […]

[2] = target: T2, TASK-3 (Homo sapiens, UniProt Q9NPC2); assay: whole-cell patch-clamp of TASK-3 currents in 293T cells
T2 construct: expressed in transfected cells; host or cells: 293T (transient, calcium-phosphate transfection)
T2 sequence (Q9NPC2 whole entry, species assumed): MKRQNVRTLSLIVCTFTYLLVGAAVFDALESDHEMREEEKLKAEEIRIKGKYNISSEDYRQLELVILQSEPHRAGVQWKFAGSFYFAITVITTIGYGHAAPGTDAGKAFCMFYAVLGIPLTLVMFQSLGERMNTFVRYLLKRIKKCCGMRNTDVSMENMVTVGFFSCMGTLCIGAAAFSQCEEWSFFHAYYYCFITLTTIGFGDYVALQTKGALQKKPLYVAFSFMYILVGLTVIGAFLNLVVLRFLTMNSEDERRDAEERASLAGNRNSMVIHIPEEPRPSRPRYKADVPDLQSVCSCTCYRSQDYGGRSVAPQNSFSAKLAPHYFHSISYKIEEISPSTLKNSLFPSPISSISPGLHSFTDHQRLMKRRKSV
Text: as §1

[3] = test system: GABAergic mIPSCS in the amygdala neurons; assay: GABAergic mIPSCs in amygdala neurons (preliminary data); conditions: 100 μM

SMILES: CC(C)=CCC/C(C)=C/Cc1cc2ccc(=O)oc2cc1O [ostruthin]
- effect on HERG-3 channels [1]: no effect
- IC50 [2]: 227 µM
- amplitude or frequency of GABAergic mIPSCS in the amygdala neurons [3]: no effect
